Measurements from the supplement of paper PMC10307832.

What was measured:
Assay in all cases: relative viability (nuclei count vs DMSO), 5 days (fraction); higher = more cells survive
[1] = compound: Cn1c(=O)n(-c2ccc(C(C)(C)C#N)cc2)c2c3cc(-c4cnc5ccccc5c4)ccc3ncc21 [Dactolisib] + CS(=O)(=O)CCNCc1ccc(-c2ccc3ncnc(Nc4ccc(OCc5cccc(F)c5)c(Cl)c4)c3c2)o1 [Lapatinib] (partner 2 µM)
How it was run: (§1)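 One day after seeding in 1536-well plates, lung cancer cell lines were dosed by pin tool. Dosing was either single-drug or a fixed anchor-drug dose plus five library-drug doses (not always all listed) in √10 steps. After 5 days, nuclei were stained in one fix-and-stain step and counted on 4× images, and relative viability is the nuclei count of treated wells over that of vehicle wells, given as the median of duplicate plates.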

[2] = compound: C1CCC(CC1)N(CCNCCC2=C3C(=C(C=C2)O)NC(=O)CO3)C(=O)CCNCCC4=CC(=C(C=C4)Cl)Cl [AZ505] + N=C(N)NC(=N)NCCc1ccccc1 [Phenformin] (partner 250 µM)
How it was run: as §1

[3] = compound: Cn1c(=O)n(-c2ccc(C(C)(C)C#N)cc2)c2c3cc(-c4cnc5ccccc5c4)ccc3ncc21 [Dactolisib] + CC(C)C[C@H](NC(=O)[C@H](Cc1ccccc1)NC(=O)c1cnccn1)B(O)O [Bortezomib] (partner 0.002 µM)
How it was run: as §1

[4] = compound: C1CCC(CC1)N(CCNCCC2=C3C(=C(C=C2)O)NC(=O)CO3)C(=O)CCNCCC4=CC(=C(C=C4)Cl)Cl [AZ505] + Cc1cc(Nc2cc(N3CCN(C)CC3)nc(Sc3ccc(NC(=O)C4CC4)cc3)n2)n[nH]1 [Tozasertib] (partner 0.1 µM)
How it was run: as §1

Row | Cell Line | relative viability ([1]; first compound 0.002 µM) | relative viability ([1]; first compound 0.006325 µM) | relative viability ([1]; first compound 0.02 µM) | relative viability ([1]; first compound 0.06325 µM) | relative viability ([1]; first compound 0.2 µM) | relative viability ([2]; first compound 0.08 µM) | relative viability ([2]; first compound 0.253 µM) | relative viability ([2]; first compound 0.8 µM) | relative viability ([2]; first compound 2.53 µM) | relative viability ([2]; first compound 8 µM) | relative viability ([3]; first compound 0.002 µM) | relative viability ([3]; first compound 0.006325 µM) | relative viability ([3]; first compound 0.02 µM) | relative viability ([3]; first compound 0.06325 µM) | relative viability ([3]; first compound 0.2 µM) | relative viability ([4]; first compound 0.08 µM) | relative viability ([4]; first compound 0.253 µM) | relative viability ([4]; first compound 0.8 µM) | relative viability ([4]; first compound 2.53 µM) | relative viability ([4]; first compound 8 µM)
1 | NCI-H2023 | 0.282 | 0.615 | 0.597 | 0.127 | 0.137 | 0.379 | 0.449 | 0.405 | 0.442 | 0.31 | 0.673 | 0.805 | 0.655 | 0.171 | 0.123 | 0.293 | 0.371 | 0.395 | 0.298 | 0.322
2 | NCI-H2085 | 0.798 | 0.657 | 0.659 | 0.359 | 0.337 | 0.68 | 0.613 | 0.664 | 0.677 | 0.694 | 1.1 | 0.884 | 0.97 | 0.662 | 0.376 | 0.663 | 0.786 | 0.823 | 0.825 | 0.891
3 | NCI-H2087 | 1.21 | 1.16 | 1.23 | 0.855 | 0.563 | 0.389 | 0.35 | 0.395 | 0.396 | 0.471 | 1.04 | 0.784 | 0.791 | 0.548 | 0.382 | 0.223 | 0.181 | 0.244 | 0.241 | 0.245
4 | NCI-H2126 | 0.826 | 0.799 | 0.745 | 0.641 | 0.476 | 0.466 | 0.537 | 0.491 | 0.526 | 0.538 | 1.19 | 1.16 | 1.12 | 0.921 | 0.551 | 0.816 | 0.809 | 0.821 | 0.806 | 0.892
5 | NCI-H2228 | 0.993 | 0.914 | 0.496 | 0.246 | 0.246 | 0.291 | 0.222 | 0.279 | 0.392 | 0.224 | 1.08 | 0.81 | 0.541 | 0.259 | 0.18 | 0.23 | 0.279 | 0.164 | 0.206 | 0.236
6 | NCI-H2347 | 1.16 | 0.943 | 0.843 | 0.906 | 0.813 | 0.271 | – | – | – | 0.331 | 0.809 | 0.916 | 0.894 | 0.691 | 0.402 | 0.492 | – | – | – | 0.54
7 | NCI-H2405 | 1.03 | 1.11 | 1.01 | 0.735 | 0.393 | 0.278 | 0.214 | 0.31 | 0.218 | 0.263 | 1 | 0.97 | 0.96 | 0.892 | 0.628 | 0.508 | 0.594 | 0.45 | 0.516 | 0.503
8 | NCI-H3122 | 1.07 | 1.02 | 1.03 | 1.08 | 0.795 | 0.369 | 0.353 | 0.37 | 0.357 | 0.414 | 1 | 0.987 | 1.11 | 1.09 | 0.927 | 0.381 | 0.401 | 0.436 | 0.355 | 0.411
9 | PC-3 [JPC-3] | 0.486 | 0.492 | 0.44 | 0.456 | 0.361 | 0.423 | 0.446 | 0.433 | 0.484 | 0.422 | 0.847 | 0.842 | 0.802 | 0.902 | 0.869 | 0.83 | 0.919 | 0.87 | 0.848 | 0.867
10 | PC-14 | 0.33 | 0.347 | 0.318 | 0.186 | 0.141 | 0.519 | 0.328 | 0.573 | 0.482 | 0.668 | 0.904 | 0.779 | 0.905 | 0.559 | 0.416 | 0.549 | 0.594 | 0.586 | 0.509 | 0.554
11 | RERF-LC-KJ | 0.901 | 0.823 | 0.829 | 0.53 | 0.418 | 0.393 | 0.436 | 0.394 | 0.348 | 0.358 | 1.17 | 0.978 | 1.01 | 0.641 | 0.574 | 0.432 | 0.432 | 0.467 | 0.459 | 0.388
12 | SK-LU-1 | 0.857 | 0.782 | 0.728 | 0.509 | 0.27 | 0.353 | 0.345 | 0.33 | 0.394 | 0.379 | – | 1.05 | 1.21 | 1.16 | 0.457 | 0.312 | 0.302 | 0.242 | 0.345 | 0.235
13 | SW 1573 | 1.13 | 1.08 | 1.04 | 0.458 | 0.367 | 0.36 | 0.402 | 0.333 | 0.341 | 0.373 | 1.18 | 0.847 | 0.771 | 0.331 | 0.373 | 0.174 | 0.169 | 0.175 | 0.171 | 0.144
